# Data reported in ChEMBL document CHEMBL1201862, “PubChem BioAssay data set” (2004).
# Calls of active or inactive are those of the source.
# Tests used:
# [1] = biological target: T1, Short transient receptor potential channel 4 (Mus musculus, UniProt Q9QUQ5); experiment: mouse TRPC4 channel inhibitors, dose response, cell-based, HEK293 TRPC4/mu-opioid, Fluo-4 calcium (AID 434942); assay type: functional;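 further: potency of inhibitors blocking the TRPC4 calcium response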
# T1 sequence (Q9QUQ5 whole entry): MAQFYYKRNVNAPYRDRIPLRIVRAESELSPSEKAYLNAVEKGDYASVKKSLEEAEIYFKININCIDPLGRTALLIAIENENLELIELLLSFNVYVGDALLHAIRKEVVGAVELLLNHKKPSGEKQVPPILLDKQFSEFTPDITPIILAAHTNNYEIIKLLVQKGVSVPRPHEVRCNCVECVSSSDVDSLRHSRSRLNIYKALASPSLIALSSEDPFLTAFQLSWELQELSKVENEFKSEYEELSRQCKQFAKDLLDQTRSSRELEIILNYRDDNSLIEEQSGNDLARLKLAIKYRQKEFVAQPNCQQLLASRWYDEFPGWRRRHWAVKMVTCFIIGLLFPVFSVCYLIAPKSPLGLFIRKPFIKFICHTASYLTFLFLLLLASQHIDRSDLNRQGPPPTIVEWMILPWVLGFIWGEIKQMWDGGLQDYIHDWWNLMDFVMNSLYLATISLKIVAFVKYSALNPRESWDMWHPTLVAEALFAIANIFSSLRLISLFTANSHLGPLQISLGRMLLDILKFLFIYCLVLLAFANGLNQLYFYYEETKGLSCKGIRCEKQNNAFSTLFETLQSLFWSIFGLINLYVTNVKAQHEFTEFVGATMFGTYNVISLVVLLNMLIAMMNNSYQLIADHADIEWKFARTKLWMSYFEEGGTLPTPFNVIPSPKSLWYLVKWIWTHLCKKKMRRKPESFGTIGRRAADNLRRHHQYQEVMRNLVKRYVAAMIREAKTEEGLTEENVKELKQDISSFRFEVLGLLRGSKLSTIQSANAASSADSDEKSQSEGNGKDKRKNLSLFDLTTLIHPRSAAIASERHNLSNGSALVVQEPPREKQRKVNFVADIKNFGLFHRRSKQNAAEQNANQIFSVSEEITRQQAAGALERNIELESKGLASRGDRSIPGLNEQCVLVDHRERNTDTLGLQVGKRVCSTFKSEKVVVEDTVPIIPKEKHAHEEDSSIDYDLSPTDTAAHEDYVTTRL
# [2] = biological target: T1, Short transient receptor potential channel 4; experiment: mouse TRPC4 channel activators, dose response, cell-based, HEK293 TRPC4/mu-opioid, Fluo-4 calcium (AID 434937); assay type: functional
# [3] = biological target: T2, Corticotropin-releasing factor receptor 2/Corticotropin-releasing factor-binding protein (Homo sapiens, UniProt P24387+Q13324); experiment: activators of CRF receptor 2 with binding protein – uHTS hits, confirmation (AID 602473); assay type: functional; conditions: read-out: EC50_Mean
# T2 sequence (Q13324 whole entry): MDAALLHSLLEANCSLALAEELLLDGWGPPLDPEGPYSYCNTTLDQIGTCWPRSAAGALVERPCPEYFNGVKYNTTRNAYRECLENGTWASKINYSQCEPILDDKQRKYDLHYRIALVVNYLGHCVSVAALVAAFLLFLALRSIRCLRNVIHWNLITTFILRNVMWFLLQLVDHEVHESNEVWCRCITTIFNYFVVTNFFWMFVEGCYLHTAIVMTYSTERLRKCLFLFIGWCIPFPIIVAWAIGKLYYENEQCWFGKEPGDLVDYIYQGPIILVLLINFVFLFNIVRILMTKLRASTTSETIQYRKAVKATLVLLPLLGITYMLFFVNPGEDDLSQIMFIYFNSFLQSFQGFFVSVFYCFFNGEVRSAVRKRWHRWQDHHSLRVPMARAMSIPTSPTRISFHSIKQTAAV
# T2 sequence (P24387 whole entry): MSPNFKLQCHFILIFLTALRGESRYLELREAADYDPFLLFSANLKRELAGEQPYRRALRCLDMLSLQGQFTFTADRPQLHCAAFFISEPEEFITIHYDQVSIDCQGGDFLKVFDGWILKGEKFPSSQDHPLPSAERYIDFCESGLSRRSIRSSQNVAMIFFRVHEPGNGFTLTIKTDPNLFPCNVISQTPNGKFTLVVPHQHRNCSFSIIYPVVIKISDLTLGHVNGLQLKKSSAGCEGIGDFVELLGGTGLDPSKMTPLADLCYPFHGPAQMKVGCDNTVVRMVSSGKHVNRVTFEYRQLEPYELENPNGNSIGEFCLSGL
# [4] = biological target: T3, Ubiquitin-conjugating enzyme E2 N (Homo sapiens, UniProt P61088); assay type: functional;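 further: Dose-response confirmation in a TR-FRET assay detecting UBC13-driven polyubiquitin chain formation, inhibition measured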
# T3 sequence (P61088 whole entry): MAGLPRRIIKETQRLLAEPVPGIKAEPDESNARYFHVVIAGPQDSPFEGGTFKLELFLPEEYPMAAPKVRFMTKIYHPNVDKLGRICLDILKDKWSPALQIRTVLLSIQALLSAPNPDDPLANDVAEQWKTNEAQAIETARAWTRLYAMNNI
# [5] = biological target: T4, DNA repair protein RAD52 homolog (Homo sapiens, UniProt P43351); assay type: functional, biochemical
# T4 sequence (P43351 whole entry): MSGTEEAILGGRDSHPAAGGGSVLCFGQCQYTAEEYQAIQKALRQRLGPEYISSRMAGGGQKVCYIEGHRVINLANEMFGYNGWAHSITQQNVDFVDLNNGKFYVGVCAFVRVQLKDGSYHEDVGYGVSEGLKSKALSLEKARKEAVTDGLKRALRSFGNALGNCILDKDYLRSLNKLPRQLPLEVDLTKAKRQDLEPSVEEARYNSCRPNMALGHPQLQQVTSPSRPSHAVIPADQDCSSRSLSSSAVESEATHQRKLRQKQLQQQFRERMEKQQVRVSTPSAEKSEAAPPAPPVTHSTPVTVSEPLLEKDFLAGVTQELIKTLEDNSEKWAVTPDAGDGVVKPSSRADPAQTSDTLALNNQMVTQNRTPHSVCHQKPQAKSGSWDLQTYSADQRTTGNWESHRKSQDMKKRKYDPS
# Caspase-6 = biological target: T5, Caspase-6 (Homo sapiens, UniProt P55212); experiment: human caspase-6 inhibitors, dose response, biochemical, VEID-R110 fluorescence, cherry-pick (AID 720632)
# T5 sequence (P55212 whole entry): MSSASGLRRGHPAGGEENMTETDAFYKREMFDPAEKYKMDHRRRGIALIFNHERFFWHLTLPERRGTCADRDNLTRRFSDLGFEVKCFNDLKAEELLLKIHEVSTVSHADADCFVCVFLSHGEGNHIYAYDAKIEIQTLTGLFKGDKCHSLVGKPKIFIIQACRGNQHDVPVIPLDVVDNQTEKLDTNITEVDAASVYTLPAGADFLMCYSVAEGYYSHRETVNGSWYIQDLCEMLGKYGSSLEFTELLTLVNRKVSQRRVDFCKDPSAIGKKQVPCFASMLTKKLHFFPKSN
# [6] = cytotoxicity in OVCAR8 ovarian cancer cells, dose response, PAX8 project, cell-based, plate reader, dry powder samples (AID 743197); assay type: functional; conditions: OVCAR-8
# Paired box protein Pax-8 = Paired box protein Pax-8 (Homo sapiens, UniProt Q06710); experiment: inhibitors of PAX8-driven TPO luciferase reporter, dose response, RMG-I cells, cherry-pick (AID 687027); assay type: functional, cell-based;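 further: luciferase reporter driven by Pax8 target thyroperoxidase promoter measured by SteadyGlo luminescence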
# Chain of Paired box protein Pax-8 (Q06710 whole entry): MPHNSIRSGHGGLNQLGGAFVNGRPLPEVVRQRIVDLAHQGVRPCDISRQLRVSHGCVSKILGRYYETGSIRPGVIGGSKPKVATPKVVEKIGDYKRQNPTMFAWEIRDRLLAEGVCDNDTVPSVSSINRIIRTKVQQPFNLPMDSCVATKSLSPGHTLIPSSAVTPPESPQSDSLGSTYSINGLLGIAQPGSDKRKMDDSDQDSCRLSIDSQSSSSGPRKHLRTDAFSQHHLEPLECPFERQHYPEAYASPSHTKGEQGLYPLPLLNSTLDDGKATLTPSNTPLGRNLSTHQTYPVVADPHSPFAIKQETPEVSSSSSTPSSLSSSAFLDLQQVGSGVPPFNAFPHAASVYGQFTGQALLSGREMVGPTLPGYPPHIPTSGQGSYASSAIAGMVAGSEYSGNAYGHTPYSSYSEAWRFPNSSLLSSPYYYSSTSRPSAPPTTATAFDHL
# [7] = NIH:OVCAR-3 ovarian cancer cell cytotoxicity, dose response, PAX8 inhibitor project, plate reader, dry powder samples (AID 743044); assay type: functional, cell-based
# cells [8] = assay type: functional, cell-based
# cells [9] = assay type: functional, cell-based; remark: listed apart in the source
# Nonstructural protein 1 = Nonstructural protein 1 (Influenza A virus, UniProt Q194T2); assay type: functional, Influenza A virus (A/California/07/2009(H1N1))
# Chain of Nonstructural protein 1 (Q194T2 whole entry): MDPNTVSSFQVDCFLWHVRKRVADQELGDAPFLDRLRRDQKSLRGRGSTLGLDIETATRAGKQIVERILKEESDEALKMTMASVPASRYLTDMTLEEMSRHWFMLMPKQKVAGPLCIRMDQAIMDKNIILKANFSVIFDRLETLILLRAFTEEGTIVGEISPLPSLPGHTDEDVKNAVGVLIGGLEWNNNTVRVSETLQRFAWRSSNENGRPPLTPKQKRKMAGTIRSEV
# [10] = inhibitors of firefly luciferase expression or activity, dose response, H4 neuroglioma cells, luminescence (AID 1990); assay type: functional, cell-based
# BJ [11] = experiment: cytotoxicity toward BJ-TERT-LT-ST fibroblasts, dose response, cell-based, RAS-independent, luminescence (AID 1935); assay type: functional; conditions: Homo sapiens;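 further: BJ fibroblasts immortalized with TERT plus LT and ST oncogenes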
# INS1 = experiment: beta cell apoptosis inhibitors, cytokine rescue, dose response, luminescence, retest (AID 449756); assay type: functional, cell-based; conditions: Rattus norvegicus;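 further: cell death triggered by IL-1 beta plus TNF-alpha plus IFN-gamma mixture; protective hits raise ATP signal compared with cytokine alone wells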
# BJ [12] = experiment: cells; assay type: functional, cell-based; conditions: Homo sapiens
# BJ [13] = experiment: cytotoxicity toward BJ-TERT fibroblasts, dose response, cell-based, RAS-independent, luminescence (AID 1933); assay type: functional; conditions: Homo sapiens
# [14] = Luminescence Cell-Based Dose Response HTS to Identify Inhibitors of 5'UTR Stem-Loop Driven Prion Protein mRNA Translation in H4 Neuroglioblastoma Cells. [Related pubchem assays: 1827 (Project Summary), 1813 (Primary HTS)]; assay type: functional
# [15] = inhibitors of SNCA 5'UTR-driven reporter translation, confirmation, H4 neuroglioma cells, luminescence (AID 1988); assay type: functional, cell-based
# Streptococcus = experiment: Group A Streptococcus viability loss, dose response, counter-screen for streptokinase expression inhibitor project, luminescence, BacTiterGlo (AID 1915); assay type: functional, organism-based;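 further: potency for reduction of bacterial viability or growth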
# [16] = test system: Streptococcus sp. 'group A'; experiment: growth inhibition of control SK(-) GAS strain, dose response, counter-screen for streptokinase expression inhibitor project, luminescence, kanamycin, BacTiterGlo, confirmation (AID 1900); assay type: functional, organism-based
# [17] = cytotoxicity toward DRD oncogenic fibroblasts, dose response, cell-based, non-viral oncogenic, luminescence (AID 1934); assay type: functional; conditions: Homo sapiens
# [18] = biological target: T6, Heat shock factor protein 1 (Mus musculus, UniProt P38532); experiment: HSF1 potentiators in luciferase reporter cells, confirmation, cell-based, NIH3T3, luminescence, dose retest (AID 435004); assay type: functional;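 further: stress induced by proteasome inhibitor MG132 added 30 min after compound; luciferase reporter driven by HSF1 response element in NIH3T3 cells; actives raise luminescence as potentiators of the MG132 stress response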
# T6 sequence (P38532 whole entry): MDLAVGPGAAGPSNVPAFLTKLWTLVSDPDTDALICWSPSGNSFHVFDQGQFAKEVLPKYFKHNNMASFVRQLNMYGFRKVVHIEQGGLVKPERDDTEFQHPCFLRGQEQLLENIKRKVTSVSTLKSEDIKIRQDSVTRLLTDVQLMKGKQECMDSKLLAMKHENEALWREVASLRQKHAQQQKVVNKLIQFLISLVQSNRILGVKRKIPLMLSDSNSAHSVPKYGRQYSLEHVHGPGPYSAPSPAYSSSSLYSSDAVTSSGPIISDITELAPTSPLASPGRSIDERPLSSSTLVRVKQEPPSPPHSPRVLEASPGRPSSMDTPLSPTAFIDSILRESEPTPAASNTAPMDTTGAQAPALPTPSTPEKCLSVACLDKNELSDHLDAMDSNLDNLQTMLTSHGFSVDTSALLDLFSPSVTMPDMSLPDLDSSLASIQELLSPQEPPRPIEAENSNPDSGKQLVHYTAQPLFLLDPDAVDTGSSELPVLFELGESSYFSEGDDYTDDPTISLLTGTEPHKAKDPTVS
structure (smiles),measurement,setting,value
CCOc1ccccc1N(CC(=O)N1CCOCC1)S(=O)(=O)c1ccccc1,EC50,[1],6.68 µM (active)
same,EC50,[2],5.31 µM (active)
same,EC50,[3],8.04 µM (active)
Cc1cccc(-c2nc3ccc(C(=O)NCCN4CCN(C)CC4)cc3nc2-c2cccc(C)c2)c1,IC50,[4],> 20 µM (inactive)
same,AC50,[5],9.79 µM (active)
CSc1ccc(CN2CCC(C)(Oc3cnc(Cl)c4ccccc34)C2)cc1 (stereo not drawn),AC50,Caspase-6,46 µM (active)
CCCCN(C)CCCNC(=O)CN1N=C(c2ccc(Cl)cc2)CCC1=O,EC50,[2],0.596 µM (active)
COc1ccc(C2C(C(C)=O)=C(O)C(=O)N2c2ccc(Br)cc2)cc1 (stereo not drawn),EC50,[1],0.668 µM (active)
Cn1c(-c2ccccc2)cnc1NCc1ccc(F)cc1,EC50,[1],1.88 µM (active)
C[C@@H]1CCCCO[C@@H](CN(C)S(=O)(=O)c2cccs2)[C@H](C)CN([C@H](C)CO)C(=O)c2cc(NC(=O)Nc3ccc(C(F)(F)F)cc3)ccc2O1,AC50,[6],> 70 µM (inactive)
same,AC50,Paired box protein Pax-8,3.17 µM (active)
COc1cc(C(=O)NC(=S)NNC(=O)[C@H]2C[C@@H]2c2ccccc2)cc(OC)c1OC,EC50,[2],3.76 µM (active)
OCC1(Cc2ccccc2)CCCN(Cc2cnn(-c3ccccc3)c2)C1 (stereo not drawn),EC50,[1],4.22 µM (active)
O=C(NCC(c1cccs1)N1CCOCC1)c1ccc(Cl)c([N+](=O)[O-])c1 (stereo not drawn),EC50,[2],5.31 µM (active)
C[C@H](CO)N1C[C@H](C)[C@H](CN(C)CC2CCCCC2)Oc2ccc(NS(=O)(=O)c3ccc(Cl)cc3)cc2CC1=O,AC50,Paired box protein Pax-8,7.77 µM (active)
same,AC50,[7],58.6 µM (active)
CCCn1c(O)cc(=O)nc1SCC(=O)N1CCc2ccccc2C1,IC50,cells [8],> 29.9 µM (inactive)
same,EC50,cells [9],> 29.9 µM (inactive)
Cc1nnc2sc(SCC(=O)Nc3cccc(Cl)c3)nn2c1=O,IC50,Nonstructural protein 1,10.4 µM (active)
Cc1[nH]n(-c2ccccc2)c(=O)c1N=Nc1c(O)cc(S(=O)(=O)N(C)C)c2ccccc12,EC50,[10],3.37 µM (active)
same,IC50,Nonstructural protein 1,19.8 µM (active)
same,EC50,BJ [11],10.1 µM (active)
same,AC50,INS1,0.949 µM (active)
same,EC50,BJ [12],10.3 µM (active)
same,EC50,BJ [13],7.94 µM (active)
same,EC50,[14],6.77 µM (active)
same,EC50,[15],2.12 µM (active)
same,EC50,Streptococcus,6.64 µM (active)
same,EC50,[16],2.21 µM (active)
same,EC50,[17],7.77 µM (active)
COc1ccc(CNCCc2ccc3c(c2)OCO3)cc1Br,EC50,[2],3.76 µM (active)
COc1cc(C(=O)N/N=C(\C)c2ccccn2)cc(OC)c1OC,IC50,Nonstructural protein 1,16.9 µM (active)
same,AC50,INS1,1.94 µM (active)
COc1cccc(S(=O)(=O)Nc2ccc3c(c2)[C@H]2C[C@H](CC(=O)NCc4ccccc4F)O[C@H](CO)[C@H]2O3)c1,AC50,[6],> 70 µM (inactive)
same,AC50,Paired box protein Pax-8,16.1 µM (active)
C=C(C)Cn1c(SCC)nc2ccccc2c1=O,EC50,[1],4.73 µM (active)
COc1ccccc1CNCC(c1ccccc1)c1ccccc1,EC50,[1],4.73 µM (active)
same,EC50,[18],> 260 µM (inactive)
